Experiments:
Assay in all cases: Loewe additivity (CHALICE) synergy screen, CellTiter-Glo viability, 7x7 dose matrix
Type in all cases: cell-based
[1] = system: CHP-134 human neuroblastoma cells; parameters: key to Max Combo Effect: growth inhibition scale; 100 = stasis; settings: for Max Combo Effect: in % (unit assumed)
Protocol: (§1) The synergistic interaction of drug combinations were assessed based on the Loewe Additivity Model using Chalice software [CombinatoRx, Cambridge Mass.]). […] 27:659-66. The software compares the response (% inhibition or % reduction of cell viability) of drug treatment from a combination of two agents to the response of the agents acting alone, against the drug-with-itself dose-additive reference model (the Loewe Additivity Model). Deviations from dose additives can be assessed numerically with a “synergy score” which quantifies the overall strength of combination effect. A synergy score >0 indicates a synergistic combination. In order to ensure only strongly synergistic combinations were selected, the acceptance criteria were set at a higher level. Strongly synergistic combinations were defined as having both a synergy score >2, a synergy score that is twice as large as the background (non-synergy) model would predict, and a maximum efficacy of >100, a value equivalent to stasis, as determined from the growth inhibition calculation.
(§2) After treatment, cell viabilty (quantity of viable cells) for each test mixtures were determined by the CellTiter-Glo® (CTG) luminescent cell viability assay (Promega) described in the Assay section, infra. […] The response to treatment (% reduction of cell viability) was analyzed using Chalice software [CombinatoRx, Cambridge Mass.]). Data evaluation and graph generation were performed using Microsoft Excel software and Chalice software.
(§3) The combinations were tested in duplicate using a 7×7 dose matrix block in 1536 well format with a cell proliferation readout as described in the Assay section infra.
(§4) All synergy calculations were performed using CHALICE software package from Zalicus and potential synergistic interactions between compound combinations were assessed using the Excess Inhibition 2D matrix according to the Loewe additivity model and were reported as synergy score (Table 10) (Lehar et al). Strongly synergistic combination were identified as having both (1) a synergy score greater than 2, a synergy score that is twice as large as the background (non-synergy) model would predict, and (2) a maximum efficacy of >100, a value roughly equivalent to stasis, as determined from the growth inhibition calculation.
(§5) Cell viability were determined by measuring cellular ATP content using the CellTiter-Glo® (CTG) luminescent cell viability assay (Promega). […] Reduced and enhanced luminescent signal values (responses) were calculated relative to untreated (control) cells, and the calculated signal value proportional to the cell viability.
(§6) Synergistic combinations were identified based on the Loewe Addivity Model. To measure the effects of drug combinations on the cell viability, cells from the 20 cell lines listed in Table 1 above were seeded into 1536-well assay plates at a density 300 cells per well in a 7 μL final volume and incubated at 37° C. overnight in a GNF Systems incubator with 95% RH and 5% CO2.
(§7) A six-point dose response curve for the test compounds were prepared in a 384 well ECHO compatible source plate (Labcyte P-05525) with 3-fold serial dilution series. For example, for a six-point dose response curve and a top compound concentration of 5 mM, the concentration of the compounds in the source well were 5 mM, 1.67 mM, 0.56 mM, 0.19 mM, 0.06 mM and 0.02 mM.
(§8) Approximately 18 hours after plating, compound combinations were generated on the fly by transferring 7.5 nL of compound from the pre-diluted source plates using the Labcyte ECHO555 integrated onto the ACP-1 system with replicate plates per cell line; the final DMSO concentration per well was 0.2%. It is noted that the total volume in the wells was 7 μL.
(§9) The well at the intersection of the first column and first row which received no compound was dosed with 2×7.5 nL of DMSO and served as control.

[2] = system: IMR-5 human neuroblastoma cells; parameters: key to Max Combo Effect: growth inhibition scale; 100 = stasis
Protocol: as §1, §2, §3, §4, §5, §6, §7, §8, §9

[3] = system: KELLY human neuroblastoma cells; parameters: key to Max Combo Effect: growth inhibition scale; 100 = stasis; settings: KELLY (F1174L)
Protocol: as §1, §2, §3, §4, §5, §6, §7, §8, §9

[4] = system: LAN-5 human neuroblastoma cells; parameters: key to Max Combo Effect: growth inhibition scale; 100 = stasis; settings: LAN-5 (R1275Q)
Protocol: as §1, §2, §3, §4, §5, §6, §7, §8, §9

[5] = system: NB-1 human neuroblastoma cells; parameters: key to Max Combo Effect: growth inhibition scale; 100 = stasis; settings: for Max Combo Effect: in % (unit assumed)
Protocol: as §1, §2, §3, §4, §5, §6, §7, §8, §9

[6] = system: NB-1691 human neuroblastoma cells; parameters: key to Max Combo Effect: growth inhibition scale; 100 = stasis; settings: NB-1691 (WT); for Max Combo Effect: in % (unit assumed)
Protocol: as §1, §2, §3, §4, §5, §6, §7, §8, §9

[7] = system: NB-SD human neuroblastoma cells; parameters: key to Max Combo Effect: growth inhibition scale; 100 = stasis; settings: NB-SD (F1174L); for Max Combo Effect: in % (unit assumed)
Protocol: as §1, §2, §3, §4, §5, §6, §7, §8, §9

[8] = system: NLF human neuroblastoma cells; parameters: key to Max Combo Effect: growth inhibition scale; 100 = stasis; settings: NLF (WT)
Protocol: as §1, §2, §3, §4, §5, §6, §7, §8, §9

[9] = system: SH-SY5Y human neuroblastoma cells; parameters: key to Max Combo Effect: growth inhibition scale; 100 = stasis; settings: SH-SY5Y (F1174L)
Protocol: as §1, §2, §3, §4, §5, §6, §7, §8, §9

[10] = system: SK-N-AS human neuroblastoma cells; parameters: key to Max Combo Effect: growth inhibition scale; 100 = stasis; settings: SK-N-AS (WT); for Max Combo Effect: in % (unit assumed)
Protocol: as §1, §2, §3, §4, §5, §6, §7, §8, §9

[11] = system: SK-N-BE(2) human neuroblastoma cells; parameters: key to Max Combo Effect: growth inhibition scale; 100 = stasis; settings: SK-N-BE(2) (WT)
Protocol: as §1, §2, §3, §4, §5, §6, §7, §8, §9

[12] = system: SK-N-FI human neuroblastoma cells; parameters: key to Max Combo Effect: growth inhibition scale; 100 = stasis; settings: SK-N-FI (WT); for Max Combo Effect: in % (unit assumed)
Protocol: as §1, §2, §3, §4, §5, §6, §7, §8, §9

[13] = system: NB-1643 human neuroblastoma cells; settings: NB-1643 (R1275Q), Table 2; for Max Combo Effect: in % (unit assumed)
Protocol: as §1, §2, §3, §4, §5
Synergistic combinations were identified based on the Loewe Addivity Model. […]

Cc1cc(Nc2ncc(Cl)c(Nc3ccccc3S(=O)(=O)C(C)C)n2)c(OC(C)C)cc1C1CCNCC1 [Compound A1, 5-chloro-N2-(2-isopropoxy-5-methyl-4-(piperidin-4-yl)phenyl)-N4-[2-(propane-2-sulfonyl)-phenyl]-pyrimidine-2,4-diamine]
Synergy score (Mean) ([1]; CHP-134 (ALK WT), Table 2): 0.223 | Max Combo Effect ([1]; CHP-134 (ALK WT), Table 2): 26.1 | Max Combo Effect ([2]; IMR-5 (ALK WT), Table 2): 80.4 | Synergy score (Mean) ([2]; IMR-5 (ALK WT), Table 2): 0.884 | Max Combo Effect ([3]; Table 2): 97.7 | Synergy score (Mean) ([3]; Table 2): 0.900 | Max Combo Effect ([4]; Table 2): 166.1 | Synergy score (Mean) ([4]; Table 2): 1.731 | Synergy score (Mean) ([5]; NB-1 (WT Amp), Table 2): 1.607 | Max Combo Effect ([5]; NB-1 (WT Amp), Table 2): 181.9 | Synergy score (Mean) ([6]; Table 2): 0.760 | Max Combo Effect ([6]; Table 2): 111.9 | Synergy score (Mean) ([7]; Table 2): 0.908 | Max Combo Effect ([7]; Table 2): 141.5 | Max Combo Effect ([8]; Table 2): 27.1 | Synergy score (Mean) ([8]; Table 2): 0.152 | Max Combo Effect ([9]; Table 2): 91.5 | Synergy score (Mean) ([9]; Table 2): 0.638 | Synergy score (Mean) ([10]; Table 2): 0.374 | Max Combo Effect ([10]; Table 2): 42.4 | Max Combo Effect ([11]; Table 2): 25.2 | Synergy score (Mean) ([11]; Table 2): 0.246 | Synergy score (Mean) ([12]; Table 2): 1.135 | Max Combo Effect ([12]; Table 2): 59.7 | Synergy score (Mean) [13]: 1.231 | Max Combo Effect [13]: 151.1

CN(C)C(=O)c1cc2cnc(Nc3ccc(N4CCNCC4)cn3)nc2n1C1CCCC1 [Compound B, 7-cyclopentyl-N,N-dimethyl-2-((5-(piperazin-1-yl)pyridin-2-yl)amino)-7H-pyrrolo[2,3-d]pyrimidine-6-carboxamide]
Synergy score (Mean) ([1]; CHP-134 (ALK WT), Table 2): 0.388 | Max Combo Effect ([1]; CHP-134 (ALK WT), Table 2): 52.3 | Synergy score (Mean) ([1]; CHP-134 (WT), Table 3): 0.35 | Max Combo Effect ([1]; CHP-134 (WT), Table 3): 48.76 | Max Combo Effect ([2]; IMR-5 (ALK WT), Table 2): 82.0 | Synergy score (Mean) ([2]; IMR-5 (ALK WT), Table 2): 0.788 | Max Combo Effect ([2]; IMR-5 (WT), Table 3): 89.02 | Synergy score (Mean) ([2]; IMR-5 (WT), Table 3): 1.04 | Max Combo Effect ([3]; Table 2): 60.5 | Synergy score (Mean) ([3]; Table 2): 0.255 | Max Combo Effect ([3]; Table 3): 27.66 | Synergy score (Mean) ([3]; Table 3): 0.19 | Max Combo Effect ([4]; Table 2): 99.2 | Synergy score (Mean) ([4]; Table 2): 1.161 | Max Combo Effect ([4]; Table 3): 73.59 | Synergy score (Mean) ([4]; Table 3): 0.57 | Synergy score (Mean) ([5]; NB-1 (WT Amp), Table 2): 1.429 | Max Combo Effect ([5]; NB-1 (WT Amp), Table 2): 111.0 | Synergy score (Mean) ([5]; NB-1 (WT_Amp), Table 3): 0.34 | Max Combo Effect ([5]; NB-1 (WT_Amp), Table 3): 40.57 | Synergy score (Mean) ([6]; Table 2): 1.032 | Max Combo Effect ([6]; Table 2): 121.1 | Synergy score (Mean) ([6]; Table 3): 0.38 | Max Combo Effect ([6]; Table 3): 91.57 | Synergy score (Mean) ([7]; Table 2): 1.476 | Max Combo Effect ([7]; Table 2): 98.6 | Synergy score (Mean) ([7]; Table 3): 0.97 | Max Combo Effect ([7]; Table 3): 61.5 | Max Combo Effect ([8]; Table 2): 43.9 | Synergy score (Mean) ([8]; Table 2): 0.122 | Max Combo Effect ([8]; Table 3): 45.7 | Synergy score (Mean) ([8]; Table 3): 0.54 | Max Combo Effect ([9]; Table 2): 86.8 | Synergy score (Mean) ([9]; Table 2): 0.811 | Max Combo Effect ([9]; Table 3): 35.3 | Synergy score (Mean) ([9]; Table 3): 0.09 | Synergy score (Mean) ([10]; Table 2): 0.503 | Max Combo Effect ([10]; Table 2): 64.7 | Synergy score (Mean) ([10]; Table 3): 0.48 | Max Combo Effect ([11]; Table 2): 75.2 | Synergy score (Mean) ([11]; Table 2): 0.628 | Max Combo Effect ([11]; Table 3): 93.3 | Synergy score (Mean) ([11]; Table 3): 1.41 | Synergy score (Mean) ([12]; Table 2): 0.435 | Max Combo Effect ([12]; Table 2): 60.3 | Synergy score (Mean) ([12]; Table 3): 0.21 | Max Combo Effect ([12]; Table 3): 51.2 | Synergy score (Mean) [13]: 0.929 | Max Combo Effect [13]: 76.4
